{"source": "paper PMC6533572", "about": "“Elucidation of the Differences in Cinobufotalin’s Pharmacokinetics Between Normal and Diethylnitrosamine-Injured Rats: The Role of P-Glycoprotein” (Frontiers in Pharmacology, 2019)", "key": {"[1]": {"test": "Water solubility", "assay_type": "physicochemical", "conditions": "pH 7.0", "from_the_text": "Traditional Chinese Medicine (TMC) is widely used due to high efficiency and low toxicity in the treatment of various diseases. Toad venom (also known as Chan’su) is derived from the dried skin secretions of giant toads (Bufo gargarizans Cantor or Bufo melanostictus Suhneider) and is currently used in clinical practice, such as Cinobufacini injection, to treat HCC ([Kamano et al., 2002]; [Tang et al., 2008]; [Hu et al., 2011]; [Zhang et al., 2018]). Cinobufotalin (Figure 1A), a bufadienolide in chemical structure, is one of the major anti-tumor components of Cinobufacini injection ([Tao et al., 2010]; [Zhang et al., 2018]). […] This implied that cinobufotalin has shown excellent druggability."}, "[2]": {"test": "Stability in rat plasma under storage conditions", "assay_type": "physicochemical", "protocol": "In addition, the stabilities of cinobufotalin at 20, 200, and 2000 ng/mL in different storage conditions were evaluated, including short term stability (such as 25°C for 4, 8, 12, and 24 h and 4°C for 4, 8, 12, and 24 h), long term stability (-80°C for 10 days) and three freeze-thaw cycles in rat plasma. Stabilities were expressed as the concentrations after different operations to the concentration at time zero. All of the samples were processed as described in Preparation of rat plasma samples section. A 5 μL aliquot was injected to UPLC-QTOF/MS for analyses."}, "[3]": {"molecular_target": "T1, P-glycoprotein (P-gp) (Homo sapiens, UniProt P08183)", "T1 construct": "expressed in transfected cells; host or cells: MDCK II (Madin Darby canine kidney) cells stably transfected with the MDR1 gene", "T1 sequence (P08183 whole entry)": "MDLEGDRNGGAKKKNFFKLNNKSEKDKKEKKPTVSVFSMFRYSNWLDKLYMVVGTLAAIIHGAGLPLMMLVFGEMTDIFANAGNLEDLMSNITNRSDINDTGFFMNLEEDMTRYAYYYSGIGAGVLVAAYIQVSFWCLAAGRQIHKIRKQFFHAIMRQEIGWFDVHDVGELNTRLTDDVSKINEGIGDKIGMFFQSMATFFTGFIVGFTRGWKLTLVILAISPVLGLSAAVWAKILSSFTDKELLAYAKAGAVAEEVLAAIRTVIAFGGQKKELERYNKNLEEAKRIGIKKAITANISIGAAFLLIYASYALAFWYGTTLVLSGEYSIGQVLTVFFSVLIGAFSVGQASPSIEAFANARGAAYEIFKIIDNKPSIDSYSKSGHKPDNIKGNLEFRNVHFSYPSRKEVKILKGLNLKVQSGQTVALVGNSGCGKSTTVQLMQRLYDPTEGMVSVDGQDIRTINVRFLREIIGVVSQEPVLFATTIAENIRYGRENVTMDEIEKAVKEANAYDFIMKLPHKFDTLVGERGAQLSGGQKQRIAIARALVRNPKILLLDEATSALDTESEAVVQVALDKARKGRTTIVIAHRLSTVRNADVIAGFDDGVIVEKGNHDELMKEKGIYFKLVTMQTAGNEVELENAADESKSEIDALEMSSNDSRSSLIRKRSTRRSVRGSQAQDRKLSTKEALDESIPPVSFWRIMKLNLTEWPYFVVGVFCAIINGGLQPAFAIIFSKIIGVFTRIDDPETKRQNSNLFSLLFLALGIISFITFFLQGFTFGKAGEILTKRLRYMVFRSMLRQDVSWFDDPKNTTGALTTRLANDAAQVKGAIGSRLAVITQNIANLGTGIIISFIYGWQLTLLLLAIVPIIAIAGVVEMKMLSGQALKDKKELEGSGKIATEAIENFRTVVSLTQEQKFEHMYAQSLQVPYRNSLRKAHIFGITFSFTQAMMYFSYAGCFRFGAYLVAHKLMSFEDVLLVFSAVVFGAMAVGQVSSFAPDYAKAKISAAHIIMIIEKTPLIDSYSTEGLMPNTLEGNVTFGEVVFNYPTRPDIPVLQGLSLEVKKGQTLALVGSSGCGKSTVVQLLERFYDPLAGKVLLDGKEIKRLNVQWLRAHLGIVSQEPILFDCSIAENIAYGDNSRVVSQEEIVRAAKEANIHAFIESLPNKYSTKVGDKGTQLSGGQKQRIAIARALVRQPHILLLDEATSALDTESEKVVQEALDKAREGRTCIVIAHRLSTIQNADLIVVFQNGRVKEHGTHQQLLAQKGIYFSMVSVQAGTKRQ", "test": "Bidirectional transport across MDCK-MDR1 cell monolayers", "assay_type": "in vitro ADME", "conditions": "for Net flux ratio: ER MDCK-MDR1 / ER MDCK II, cinobufotalin 20 μM; for Papp A→B at 120 min, 20 μM / Papp B→A at 120 min, 20 μM / efflux ratio at 120 min, 20 μM: dog, MDCK-MDR1, cinobufotalin 20 μM; for efflux ratio at 120 min, 20 μM: read-out: ER", "protocol": "MDCK II and MDCK-MDR1 cells were seeded into 12-well Transwell polycarbonate membrane inserts (12 mm diameter inserts, 0.4 μm pore size, Corning Costar) at a density of 6 × 10^5 cells/well. Cells were cultured at 37°C under 5% CO2 in DMEM with 10% FBS, and the culture medium was refreshed every other day. Experiments were conducted when the tight junctional cell monolayer formed. First, the cells were washed three times using 37°C preheated HBSS buffer (pH = 7.4) and preincubated in a shaking incubator for 30 min at 37°C. Then the transport studies were initiated after the blank HBSS buffer and dosing solution (HBSS buffer containing cinobufotalin at a final concentration of 20 μM) were added to the receiver compartment and donor compartment, respectively. Verapamil, if used, was added to both compartment during the incubated period. The volumes of the apical side (AP) and basolateral side (BL) were 0.5 and 1.5 mL, respectively. Samples (100 μL) were taken from the receiver compartment every 30 min during the incubation period of 120 min, and then replaced with the same volume of […]. At the end of the incubated period, aliquots of 100 μL were withdrawn from the donor compartment to calculated mass balance. All samples were mixed with 50 μL acetonitrile and centrifuged at 4°C (12,000 g, 10 min. The supernatant was subjected to UPLC-QTOF/MS for analyses.\nThe apparent permeability (cm/s) from apical-to-basal (Papp,AP-BL) and basal-to-apical (Papp,BL-AP) were calculated according to the following Equation (4), where dQ/dt is the rate of drug permeation (nmol/s), A is the area of polycarbonate membrane (A = 1.12 cm^2), and C0 is the initial concentration of cinobufotalin in the donor compartment.\nThe efflux ratio (ER) and net flux ratio were calculated according to Equations (5) and (6) as described in our previous research ([Sun et al., 2017]).\n(5) ER=Papp, BL−AP/Papp, AP−BL\n(6) Net flux ratio=ERMDCK−MDRI/ERMDCK II"}, "[4]": {"system": "HepG2 cells", "test": "Wound healing assay, HepG2 cells", "assay_type": "cell-based", "conditions": "40, 60 and 80 nM, 24 h", "protocol": "Hepatocellular cancer cells (HepG2 and Huh-7) were purchased from the cell bank of the Chinese Academy of Science (Shanghai, China). These cells were cultured in Dulbecco’s modified Eagle’s medium (DMEM) containing 10% fetal bovine serum (FBS), penicillin (100 units/mL) and streptomycin (100 units/mL) in a humidified atmosphere with 5% CO2 at 37 °C.\nWound healing assay was used to investigate the effect of cinobufotalin on the migration of HepG2 and Huh-7 cells. Cells were seeded into 6-well plates at the density of 4 × 10^5 cells/well and maintained until reaching monolayer confluence. The cells were scratched using 20-μL pipette tips and rinsed with PBS buffer for three times. And then the cells were cultured in serum-free medium containing different concentrations of cinobufotalin (40, 60, 80 nM). After treatment with cinobufotalin for different lengths of time (0 and 24 h), the width of wound was measured and the images of cells were acquired using inverted microscope (Leica, Wetzlar, German). The rate of wound healing = [(the wound width of 0 h - 24 h)/0 h wound width] × 100%. All experiments were performed in triplicate."}, "[5]": {"system": "CYP3A4", "set-up": "method as in Han et al., 2016", "conditions": "especially mediated by CYP3A4; ref Han et al., 2016; cited from earlier work"}, "[6]": {"conditions": "pH 7.4, with verapamil (concentration not stated), in both compartments, with verapamil"}}, "note": "Where two headings read alike, the source gives them in different places.", "data": [{"molecule": "CC(=O)O[C@H]1[C@H]2O[C@]23[C@@H]2CC[C@]4(O)C[C@@H](O)CC[C@]4(C)[C@H]2CC[C@]3(C)[C@H]1c1ccc(=O)oc1", "note": "[Cinobufotalin]", "values": [{"measurement": "solubility", "setting": "[1]", "result": 117, "unit": "µg/mL"}, {"measurement": "Stability in rat plasma, Freezing-thaw 3 cycles", "setting": "[2]; 20 ng/mL", "result": "99.2 ± 0.8", "unit": "%"}, {"measurement": "Stability in rat plasma, -80°C for 10 days", "setting": "[2]; 200 ng/mL", "result": "100.9 ± 1.2", "unit": "%"}, {"measurement": "Stability in rat plasma, Freezing-thaw 3 cycles", "setting": "[2]; 200 ng/mL", "result": "95.6 ± 1.6", "unit": "%"}, {"measurement": "Stability in rat plasma, -80°C for 10 days", "setting": "[2]; 2000 ng/mL", "result": "97.3 ± 5.6", "unit": "%"}, {"measurement": "Stability in rat plasma, Freezing-thaw 3 cycles", "setting": "[2]; 2000 ng/mL", "result": "99.2 ± 0.6", "unit": "%"}, {"measurement": "Net flux ratio", "setting": "[3]", "result": 2.1}, {"measurement": "Net flux ratio", "setting": "[3]; with verapamil", "result": 1.0}, {"measurement": "decrease of net flux ratio when verapamil was used", "setting": "[3]; MDCK-MDR1 vs MDCK II, with verapamil", "result": 50.7, "unit": "%"}, {"measurement": "Papp A→B at 120 min, 20 μM", "setting": "[3]; [6]", "result": "32.1 ± 1.5", "unit": "×10⁻⁶ cm/s"}, {"measurement": "Papp B→A at 120 min, 20 μM", "setting": "[3]; [6]", "result": "34.5 ± 2.3", "unit": "×10⁻⁶ cm/s"}, {"measurement": "efflux ratio at 120 min, 20 μM", "setting": "[3]; [6]", "result": 1.1}, {"measurement": "Papp A→B at 120 min, 20 μM", "setting": "[3]; pH 7.4", "result": "19.4 ± 1.3", "unit": "×10⁻⁶ cm/s"}, {"measurement": "Papp B→A at 120 min, 20 μM", "setting": "[3]; pH 7.4", "result": "42.4 ± 1.5", "unit": "×10⁻⁶ cm/s"}, {"measurement": "efflux ratio at 120 min, 20 μM", "setting": "[3]; pH 7.4", "result": 2.2}, {"measurement": "P-gp substrate identification", "setting": "[3]; net flux ratio higher than 2 and reduction more than 50% with verapamil", "result": "substrate of P-gp"}, {"measurement": "migration of HepG2 cells (wound healing)", "setting": "[4]", "result": "significantly attenuated"}, {"measurement": "metabolic pathways in human liver microsomes", "setting": "[5]", "result": "undergo hydroxylation and dehydrogenation"}]}]}
